Measured values as given in the supplement of paper PMC11208160.

Assay: recombinant UMI read abundance after kanamycin selection (control-corrected) (log10(CPM+1)); higher = more efficient recombination; extreme values may be limits of the assay; sequences stand for … in AGTGCAGAGAAAATCGGCCAGTTTTCTCTGCCTGCAGTCCGCATGCCGTGGGACCCCTTGGGTTCTAACCTGTTGCCTAGATTTATGCAGCGGACTGCCTTTCTCCCAAAGTGATAAACCGG…AGGTTGGTTTCACT; site = the 11-nt donor
Procedure, shortened: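 In a pooled Escherichia coli screen for the IS621 bridge recombinase, donor and donor-binding-loop pairs were each placed with a 12-nt UMI on a plasmid bearing a promoterless kanamycin gene. This library was co-electroporated with a target plasmid encoding a fixed target and T7-inducible recombinase, and cells were plated either on IPTG (0.07 mM) plus kanamycin or without selection, in two replicates each. Recombinant UMIs were PCR-amplified across the donor–target junction and sequenced, and counts were converted to CPM, averaged over replicates, scaled by control-derived factors and reported as log10(CPM+1).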

Row | Sequence | recombinant UMI read abundance (log10)
1 | CAAGCAGCATGGACCGGTTTTCCCGGTAATCCGTATTTGCT (site CAAGCAGCTTG) | 1.3
2 | CAAGCAGCATGGACCGGTTTTCCCGGTAATCCGTATTTGCT (site CAAGCATCTAG) | 0.937
3 | CAAGCAGCATGGACCGGTTTTCCCGGTAATCCGTATTTGCT (site CAAGCCGCTAG) | 0.0579
4 | CAAGCAGCATGGACCGGTTTTCCCGGTAATCCGTATTTGCT (site CAAGCGGCTAG) | 0.638
5 | CAAGCAGCATGGACCGGTTTTCCCGGTAATCCGTATTTGCT (site CAAGCTGCTAG) | 0.0658
6 | CAAGCAGCATGGACCGGTTTTCCCGGTAATCCGTATTTGCT (site CAAGGAGCTAG) | 0
7 | CAAGCAGCATGGACCGGTTTTCCCGGTAATCCGTATTTGCT (site CAAGTAGCTAG) | 0
8 | CAAGCAGCATGGACCGGTTTTCCCGGTAATCCGTATTTGCT (site CAATCAGCTAG) | 0
9 | CAAGCAGCATGGACCGGTTTTCCCGGTAATCCGTATTTGCT (site CACGCAGCTAG) | 0.416
10 | CAAGCAGCATGGACCGGTTTTCCCGGTAATCCGTATTTGCT (site CAGGCAGCTAG) | 0.00336
11 | CAAGCAGCATGGACCGGTTTTCCCGGTAATCCGTATTTGCT (site CATGCAGCTAG) | 0.0527
12 | CAAGCAGCATGGACCGGTTTTCCCGGTAATCCGTATTTGCT (site CCAGCAGCTAG) | 0.00438
13 | CAAGCAGCATGGACCGGTTTTCCCGGTAATCCGTATTTGCT (site CGAGCAGCTAG) | 0.00425
14 | CAAGCAGCATGGACCGGTTTTCCCGGTAATCCGTATTTGCT (site CTAGCAGCTAG) | 0.616
15 | CAAGCAGCATGGACCGGTTTTCCCGGTAATCCGTATTTGCT (site GAAGCAGCTAG) | 0.0166
16 | CAAGCAGCATGGACCGGTTTTCCCGGTAATCCGTATTTGCT (site TAAGCAGCTAG) | 0.00331
17 | CAAGCAGCATGGACCGGTTTTCCCGGTAATCCGTATTTGTT (site CAAGCAGCTAA) | 1.83
18 | CAAGCAGCATGGACCGGTTTTCCCGGTAATCCGTATTTGTT (site CAAGCAGCTAC) | 0.0209
19 | CAAGCAGCATGGACCGGTTTTCCCGGTAATCCGTATTTGTT (site CAAGCAGCTAG) | 2.47
20 | CAAGCAGCATGGACCGGTTTTCCCGGTAATCCGTATTTGTT (site CAAGCAGCTAT) | 1.65
21 | CAAGCCCCATGGACCGGTTTTCCCGGTAATCCGTATTTGTG (site CAAGCACCTCA) | 0.0304
22 | CAAGCCCCATGGACCGGTTTTCCCGGTAATCCGTATTTGTG (site CAAGCCCCTCA) | 0.0397
23 | CAAGCCCCATGGACCGGTTTTCCCGGTAATCCGTATTTGTG (site CAAGCGCCTCA) | 0.0132

Row | Sequence | recombinant UMI read abundance (log10)
24 | CAAGCCCCATGGACCGGTTTTCCCGGTAATCCGTATTTGTG (site CAAGCTCCTCA) | 0.0205
25 | CAAGCGCCATGGACCGGTTTTCCCGGTAATCCGTATTTGAG (site CAAGCGCCTCA) | 0.0151
26 | CAAGCGCCATGGACCGGTTTTCCCGGTAATCCGTATTTGAG (site CAAGCGCCTCC) | 0.0109
27 | CAAGCGCCATGGACCGGTTTTCCCGGTAATCCGTATTTGAG (site CAAGCGCCTCG) | 0.0182
28 | CAAGCGCCATGGACCGGTTTTCCCGGTAATCCGTATTTGAG (site CAAGCGCCTCT) | 0.322
29 | CAAGCGCCATGGACCGGTTTTCCCGGTAATCCGTATTTGTA (site CAAGCGCCTAA) | 0.239
30 | CAAGCGCCATGGACCGGTTTTCCCGGTAATCCGTATTTGTA (site CAAGCGCCTCA) | 0.173
31 | CAAGCGCCATGGACCGGTTTTCCCGGTAATCCGTATTTGTA (site CAAGCGCCTGA) | 1.01
32 | CAAGCGCCATGGACCGGTTTTCCCGGTAATCCGTATTTGTA (site CAAGCGCCTTA) | 1.49
33 | CAAGCGTCATGGACCGGTTTTCCCGGTAATCCGTATTTGTG (site CAAGCGACTCA) | 0.101
34 | CAAGCGTCATGGACCGGTTTTCCCGGTAATCCGTATTTGTG (site CAAGCGCCTCA) | 0.0275
35 | CAAGCGTCATGGACCGGTTTTCCCGGTAATCCGTATTTGTG (site CAAGCGGCTCA) | 0.00505
36 | CAAGCGTCATGGACCGGTTTTCCCGGTAATCCGTATTTGTG (site CAAGCGTCTCA) | 2.6
37 | CAAGGAACATGGACCGGTTTTCCCGGTAATCCGTATTTGCT (site CAAGGAACTAG) | 2.26
38 | CAAGGAGCATGGACCGGTTTTCCCGGTAATCCGTATTTGCT (site CAAGAAGCTAG) | 2.45
39 | CAAGGAGCATGGACCGGTTTTCCCGGTAATCCGTATTTGCT (site CAAGCAGCTAG) | 2.16
40 | CAAGGAGCATGGACCGGTTTTCCCGGTAATCCGTATTTGCT (site CAAGGAGCTAG) | 2.76
41 | CAAGGAGCATGGACCGGTTTTCCCGGTAATCCGTATTTGCT (site CAAGTAGCTAG) | 2.2
42 | CAAGGCCCATGGACCGGTTTTCCCGGTAATCCGTATTTGTC (site CAAGGCCCTGA) | 2.07
43 | CAAGGCTCATGGACCGGTTTTCCCGGTAATCCGTATTTGAA (site CAAAGCTCTTT) | 2.15
44 | CAAGGCTCATGGACCGGTTTTCCCGGTAATCCGTATTTGAA (site CAACGCTCTTT) | 0.00296
45 | CAAGGCTCATGGACCGGTTTTCCCGGTAATCCGTATTTGAA (site CAAGGCTCTTT) | 2.71
46 | CAAGGCTCATGGACCGGTTTTCCCGGTAATCCGTATTTGAA (site CAATGCTCTTT) | 0.368

Row | Sequence | recombinant UMI read abundance (log10)
47 | CAAGTATCATGGACCGGTTTTCCCGGTAATCCGTATTTGAC (site CAAGTATCTGT) | 2.94
48 | CAAGTATCATGGACCGGTTTTCCCGGTAATCCGTATTTGAC (site CCAGTATCTGT) | 0.955
49 | CAAGTATCATGGACCGGTTTTCCCGGTAATCCGTATTTGAC (site CGAGTATCTGT) | 2.2
50 | CAAGTATCATGGACCGGTTTTCCCGGTAATCCGTATTTGAC (site CTAGTATCTGT) | 2.04
51 | CAAGTCACATGGACCGGTTTTCCCGGTAATCCGTATTTGGT (site CAAGTCACTAC) | 1.84
52 | CAAGTCACATGGACCGGTTTTCCCGGTAATCCGTATTTGGT (site CAAGTCACTCC) | 0.00397
53 | CAAGTCACATGGACCGGTTTTCCCGGTAATCCGTATTTGGT (site CAAGTCACTGC) | 2.43
54 | CAAGTCACATGGACCGGTTTTCCCGGTAATCCGTATTTGGT (site CAAGTCACTTC) | 0.155
55 | CAAGTCACATGGACCGGTTTTCCCGGTAATCCGTATTTGTT (site CAAGTCACTAA) | 2.2
56 | CAATACACATGGACCGGTTTTCCCGGTAATCCGTATTTGCA (site CAATACACTTG) | 2.2
57 | CAATACCCATGGACCGGTTTTCCCGGTAATCCGTATTTGCT (site CAATACCCTAG) | 1.93
58 | CAATACCCATGGACCGGTTTTCCCGGTAATCCGTATTTGCT (site CAATCCCCTAG) | 1.55
59 | CAATACCCATGGACCGGTTTTCCCGGTAATCCGTATTTGCT (site CAATGCCCTAG) | 0.00435
60 | CAATACCCATGGACCGGTTTTCCCGGTAATCCGTATTTGCT (site CAATTCCCTAG) | 0
61 | CAATAGCCATGGACCGGTTTTCCCGGTAATCCGTATTTGCC (site CAATAGCCTGG) | 0.755
62 | CAATATCCATGGACCGGTTTTCCCGGTAATCCGTATTTGTT (site CAATATCCTAA) | 1.7
63 | CAATCAGCATGGACCGGTTTTCCCGGTAATCCGTATTTGCT (site CAAACAGCTAG) | 0
64 | CAATCAGCATGGACCGGTTTTCCCGGTAATCCGTATTTGCT (site CAACCAGCTAG) | 0.798
65 | CAATCAGCATGGACCGGTTTTCCCGGTAATCCGTATTTGCT (site CAAGCAGCTAG) | 0.0241
66 | CAATCAGCATGGACCGGTTTTCCCGGTAATCCGTATTTGCT (site CAATCAGCTAG) | 0.199
67 | CAATCCTCATGGACCGGTTTTCCCGGTAATCCGTATTTGAA (site CAATACTCTTT) | 1.33
68 | CAATCCTCATGGACCGGTTTTCCCGGTAATCCGTATTTGAA (site CAATCCTCTTT) | 1.98
